Experimental data reported in patent US20230119539A1, “TRACELESS LINKERS AND PROTEIN-CONJUGATES THEREOF” (Regeneron Pharmaceuticals, Inc., priority 2019, published 2023).

Legend:
[1] = Solubility of linker-payloads and quenched linker-payloads; assay type: physicochemical; conditions: water; quenched linker-payloads, Table 6a; read-out: Solubility
Description: The quenched linker-payloads were water soluble and used for the pH stability test.

[2] = pH stability of quenched linker-payloads in buffers (LCMS); assay type: physicochemical; conditions: RT
Procedure: To a solution of compound (payloads or quenched-linker-payloads) in DMSO (0.2-1.0 mg/mL) was added corresponding PBS buffer (V(buffer)/V(DMSO)=5) to give test samples (pH 3, 4, 5, 6, 7.4, and 8.5, or other special pH). The test samples were incubated at RT for at least 3 days and monitored by LCMS (i.e., at 1 hr, 2 hr, 4 hr, 8 hr, and 1 day, 2 day, 3 day, 4 day, 5 day, 6 day, 7 day, 8 day, 9 day, and 21 day time points). Initial concentrations of the samples were 0.2 mg/mL (DMSO/buffer, v/v=1/5). […] The payloads and quenched linker-payloads were mostly stable at pH >5.0, 6.0, 7.4 and 8.5 after 3 days. In more acidic conditions, such as pH 1.0, the payloads or linker-payloads were easily cleaved to release D*-OH.

Structure (SMILES): CC(C)[C@H](NC(=O)CCOCCOCCOCCOCCNC(=O)CCC(=O)N1Cc2ccccc2-c2c(nnn2CCOCCOCCOCCOCCC(=O)NCCS(=O)(=O)O)-c2ccccc21)C(=O)N[C@@H](CCCNC(N)=O)C(=O)Nc1ccc(COC(=O)NCC(=O)NCOCC(=O)[C@@]2(O)[C@H](C)C[C@H]3[C@@H]4CCC5=CC(=O)C=C[C@]5(C)[C@@]4(F)[C@@H](O)C[C@@]32C)cc1 [Q1L1-PI]
- Solubility [1]: > 1000 µg/mL
- percentage of the remaining compound ([2]; DMSO, 1 Day): 100%
- percentage of the remaining compound ([2]; DMSO, 2 Day): 100%
- percentage of the remaining compound ([2]; DMSO, 3 Day): 100%
- percentage of the remaining compound ([2]; DMSO, 4 Day): 100%
- percentage of the remaining compound ([2]; DMSO, 7 Day): 100%
- percentage of the remaining compound ([2]; DMSO, 1 hr): 100%
- percentage of the remaining compound ([2]; DMSO, 4 hr): 100%
- percentage of the remaining compound ([2]; pH 3.0, 1 Day): 100%
- percentage of the remaining compound ([2]; pH 3.0, 2 Day): 100%
- percentage of the remaining compound ([2]; pH 3.0, 3 Day): 96%
- percentage of the remaining compound ([2]; pH 3.0, 4 Day): 95%
- percentage of the remaining compound ([2]; pH 3.0, 7 Day): 91%
- percentage of the remaining compound ([2]; pH 3.0, 1 hr): 100%
- percentage of the remaining compound ([2]; pH 3.0, 4 hr): 100%
- percentage of the remaining compound ([2]; pH 4.0, 1 Day): 100%
- percentage of the remaining compound ([2]; pH 4.0, 2 Day): 100%
- percentage of the remaining compound ([2]; pH 4.0, 3 Day): 100%
- percentage of the remaining compound ([2]; pH 4.0, 4 Day): 100%
- percentage of the remaining compound ([2]; pH 4.0, 7 Day): 100%
- percentage of the remaining compound ([2]; pH 4.0, 1 hr): 100%
- percentage of the remaining compound ([2]; pH 4.0, 4 hr): 100%
- percentage of the remaining compound ([2]; pH 5.0, 1 Day): 100%
- percentage of the remaining compound ([2]; pH 5.0, 2 Day): 100%
- percentage of the remaining compound ([2]; pH 5.0, 3 Day): 100%
- percentage of the remaining compound ([2]; pH 5.0, 4 Day): 100%
- percentage of the remaining compound ([2]; pH 5.0, 7 Day): 100%
- percentage of the remaining compound ([2]; pH 5.0, 1 hr): 100%
- percentage of the remaining compound ([2]; pH 5.0, 4 hr): 100%
- percentage of the remaining compound ([2]; pH 7.4, 1 Day): 100%
- percentage of the remaining compound ([2]; pH 7.4, 2 Day): 100%
- percentage of the remaining compound ([2]; pH 7.4, 3 Day): 100%
- percentage of the remaining compound ([2]; pH 7.4, 4 Day): 100%
- percentage of the remaining compound ([2]; pH 7.4, 7 Day): 100%
- percentage of the remaining compound ([2]; pH 7.4, 1 hr): 100%
- percentage of the remaining compound ([2]; pH 7.4, 4 hr): 100%
